Reference: paper PMC3847553, “Kinetic properties of “dual” orexin receptor antagonists at OX1R and OX2R orexin receptors” (Frontiers in Neuroscience, 2013)
Where two headings read alike, the source gives them in different places.

Assays:
human OX2R = molecular target: T1, human OX2R (Homo sapiens, UniProt O43614); experiment: [3H]-BBAC competition binding over time, CHO-hOX2 membranes; conditions: competition for 4.6 nM [3H]-BBAC, 15 min to 4 h, human OX2R
T1 construct: expressed in transfected cells; host or cells: CHO; cells from GNF, San Diego
T1 sequence (O43614 1-444): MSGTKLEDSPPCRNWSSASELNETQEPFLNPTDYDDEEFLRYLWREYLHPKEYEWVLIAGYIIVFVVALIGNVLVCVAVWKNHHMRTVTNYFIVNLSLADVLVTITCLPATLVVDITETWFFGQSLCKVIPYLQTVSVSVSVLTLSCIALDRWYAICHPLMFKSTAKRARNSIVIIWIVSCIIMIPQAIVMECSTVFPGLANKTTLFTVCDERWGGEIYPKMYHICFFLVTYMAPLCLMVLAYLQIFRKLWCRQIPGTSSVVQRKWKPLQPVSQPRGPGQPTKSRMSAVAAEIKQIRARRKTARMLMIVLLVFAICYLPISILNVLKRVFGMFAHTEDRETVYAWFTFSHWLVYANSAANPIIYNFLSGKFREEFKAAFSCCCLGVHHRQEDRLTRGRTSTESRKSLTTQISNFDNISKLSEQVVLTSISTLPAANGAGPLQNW
Description: (§1) Chinese Hamster Ovary (CHO) cells stably transfected with the cDNA encoding the human OX1R (CHO-hOX1) or OX2R (CHO-hOX2) were used (kindly provided by T. Cremer and Dr. S. Geisse, NIBR Basel, Switzerland). For measurements of calcium accumulation using FLIPR® (Fluorescent Imaging Plate Reader) assay, CHO or Human Embryonic Kidney (HEK) cells stably expressing mouse, rat or human OX1R or OX2R (kindly provided by Dr. A. Chen, GNF, San Diego, CA, USA) were used. […] Cells were maintained in a humidified incubator at 37°C in 5% CO2. For crude cell membrane preparations, cells were washed and harvested in 10 mM HEPES (pH 7.5), and centrifuged at 4°C for 5 min at 2500 g. The cell pellet was either stored at −80°C or used directly.
Cell membranes were resuspended in binding assay buffer at 4°C (10 mM HEPES, pH 7.5, 0.5% (w/v) bovine serum albumin (BSA), 5 mM MgCl2, 1 mM CaCl2, and 0.05% Tween 20) and homogenized with a Polytron homogenizer at 50 Hz for 20 s. […] Radioactivity was quantified using a TopCount™ microplate counter (Perkin Elmer).
All data was analyzed using GraphPad Prism 4.0 (GraphPad, San Diego, USA). The saturation data was fit to a non-linear regression model for saturation binding with consideration for one site binding. […] Competition binding data was fit to a non-linear regression model for competition binding with consideration for variable one site binding with a non-fixed Hill slope.

rat OX2R = molecular target: T2, rat OX2R (Rattus norvegicus, UniProt P56719); experiment: FLIPR orexin A-stimulated calcium accumulation, rat OX2R; assay type: cell-based; conditions: HEK cells
T2 sequence (P56719 1-460): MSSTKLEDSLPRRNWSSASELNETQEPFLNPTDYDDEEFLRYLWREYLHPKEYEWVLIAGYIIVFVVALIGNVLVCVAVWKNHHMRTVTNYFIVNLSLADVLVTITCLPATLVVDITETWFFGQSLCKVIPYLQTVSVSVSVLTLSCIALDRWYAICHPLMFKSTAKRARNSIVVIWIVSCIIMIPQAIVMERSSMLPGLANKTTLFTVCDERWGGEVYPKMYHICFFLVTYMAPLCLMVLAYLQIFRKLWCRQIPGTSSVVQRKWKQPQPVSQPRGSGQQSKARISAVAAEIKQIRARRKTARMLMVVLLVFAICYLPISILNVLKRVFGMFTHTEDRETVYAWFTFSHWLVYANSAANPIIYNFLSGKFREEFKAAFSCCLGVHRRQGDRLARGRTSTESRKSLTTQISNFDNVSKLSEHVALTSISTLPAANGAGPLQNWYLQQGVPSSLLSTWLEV
Description: as §1
Cells expressing either human, rat or mouse OX1R or OX2R were seeded at 8,000 cells/well in black 384 well clear bottom plates and incubated overnight at 37°C. The following day, medium was discarded and cells loaded with 50 μ l of 1 mM Fluo-4 AM (Invitrogen F14202) in dimethyl sulfoxide in working buffer (Hanks' balanced salt solution, 10 mM HEPES) and incubated for 60 min at 37°C. The loading buffer was removed and cells were washed with 100 μ l working buffer containing […], 0.1% BSA, and 2.5 mM Probenecid (pH 7.4) to remove the excess Fluo-4 AM. […] The assay plate was then transferred to the Molecular Devices-FLIPR384. The baseline calcium signal was recorded for 10 s, then the antagonist of interest was injected (10 μl at 3 times the final concentration) and the calcium signal recorded every second for 1 min, then every 2 s 40 times.

[1] = antagonist incubation 30 min, read-out: pKi (converted)
[2] = antagonist incubation 1 h, read-out: pKi (converted)
[3] = antagonist incubation 2 h, read-out: pKi (converted)
[4] = antagonist incubation 4 h, read-out: pKi (converted)

In the case of `CNC(=O)[C@@H](c1ccccc1)N1CCc2cc(OC)c(OC)cc2[C@@H]1CCc1ccc(C(F)(F)F)cc1` [Almorexant], the “effect of incubation time on competition curves” value (“effect of incubation time” below) (human OX2R) is reported as “substantially”, the Ki (rat OX2R; [1]) is reported as 5.62 nM and the Ki (rat OX2R; [2]) is reported as 2.24 nM. For the same molecule, the Ki (rat OX2R; [3]) was 1.02 nM and the Ki (rat OX2R; [4]) was 0.661 nM.

`Cc1ccc(-c2ncccn2)c(C(=O)N2C[C@H](COc3ccc(F)cn3)CC[C@H]2C)c1` [Filorexant] was tested, and the “effect of incubation time” value (human OX2R) was “shifted to the left over time, even up to 4 h”, the Ki (rat OX2R; [1]) was 0.741 nM and the Ki (rat OX2R; [2]) was 0.417 nM. It also gave a Ki (rat OX2R; [3]) of 0.251 nM and a Ki (rat OX2R; [4]) of 0.178 nM.

For `COc1ccnc(N2CCC3(CCCN(Cc4c[nH]c5ccccc45)C3=O)CC2)n1` [IPSU, 2-((1H-Indol-3-yl)methyl)-9-(4-methoxypyrimidin-2-yl)-2,9-diazaspiro[5.5]undecan-1-one], the “effect of incubation time” value (human OX2R) was “do not show time-dependency”, the Ki (rat OX2R; [1]) was 23.4 nM and the Ki (rat OX2R; [2]) was 28.2 nM. It also gave a Ki (rat OX2R; [3]) of 24 nM and a Ki (rat OX2R; [4]) of 28.2 nM.

With `Cc1nc(C(=O)N2CCCC[C@H]2CNC(=O)c2cccc3occc23)c(-c2ccc(F)cc2)s1` [SB-649868] the “effect of incubation time” value (human OX2R) was “binding appeared to be rather stable”, the Ki (rat OX2R; [1]) was 0.457 nM and the Ki (rat OX2R; [2]) was 0.316 nM. It also gave a Ki (rat OX2R; [3]) of 0.155 nM and a Ki (rat OX2R; [4]) of 0.141 nM.

In the case of `Cc1ccc(-n2nccn2)c(C(=O)N2CCN(c3nc4cc(Cl)ccc4o3)CC[C@H]2C)c1` [Suvorexant], the “effect of incubation time” value (human OX2R) is reported as “shifted to the left over time”, the Ki (rat OX2R; pKi, antagonist incubation 30 min) is reported as 1.95 nM and the Ki (rat OX2R; pKi, antagonist incubation 1 h) is reported as 0.871 nM. The Ki (rat OX2R; pKi, antagonist incubation 2 h) was 0.603 nM and the Ki (rat OX2R; pKi, antagonist incubation 4 h) was 0.427 nM.
